Results published in PMC6268327 (2012).

What was measured:
[1] = tested on: C-myc DNA (NHE III1 promoter fragment duplex) (DNA, duplex) GGGAGGGTGGGGAAGG/CCTTCCCCACCCTCCC; assay: fluorescence quenching titration (double-log plot); conditions: Tris-HCl buffer 100 mM (no metal cations given); 100 mM Tris-HCl, pH 7.4; 298 K; 1 μM compound; double-log fit, apparent
[2] = tested on: p53 DNA (P1 promoter fragment duplex) (DNA, duplex) CCTCCTCCCCAACTCC/GGAGTTGGGGAGGAGG; assay: fluorescence quenching titration (double-log plot); conditions: Tris-HCl buffer 100 mM (no metal cations given); 100 mM Tris-HCl, pH 7.4; 298 K; 1 μM compound; double-log fit, apparent

Kb [1] | Kb [2] | SMILES
404000 L/mol | 1.16e+06 L/mol | Oc1ccc2ccc3cccc4ccc1c2c34
1390 L/mol | 2040 L/mol | OCCCCc1ccc2ccc3cccc4ccc1c2c34
